This is an account of results in patent US20220024921A1, “1,3,4-OXADIAZOLONE COMPOUND AND PHARMACEUTICAL” (NIPPON SHINYAKU CO., LTD., priority 2018, published 2022).

Structures are written as SMILES. Structures can show the parent of a compound that is named as a salt.

Test [1] addresses T1, PIM1 serine/threonine kinase (Homo sapiens, UniProt P11309).
T1 construct: purchased Carna Bioscience, Inc
Kind of test: PIM1 serine/threonine kinase inhibitory effect. The settings on record: PIM1 serine/threonine kinase activity; ATP 40 μM; 30° C., 30 minutes. The class given is biochemical. In outline:
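Recombinant PIM1 (0.15 μg/ml final) with 0.5 μM biotinylated substrate and 40 μM ATP in pH 7.0 HEPES/MgCl2 buffer, 30 min at 30° C. Compound range was 0.01–10000 nM final, n=2. HTRF detection with streptavidin-XL665 and anti-phospho antibody-cryptate, 1 h; IC50 from non-linear regression of the 665/620 ratio.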

Test [2] deals with PIM1 transgenic cells (Ba/F3) (Homo sapiens, UniProt P11309). Nature of the test: Proliferation inhibitory effect on PIM1 transgenic cells. It is filed as cell-based, mouse. Conditions: proliferation inhibition, 72 hours, Cell Counting Kit-8, read-out: PIM1 IC50. In short, it runs like this: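 Mouse Ba/F3 pro-B cells were retrovirally transduced with human PIM1 so that their proliferation depends on PIM1. Cells were treated with compound at 1–10000 nM final for 72 h, then read by CCK-8 (OD450−OD650). Inhibition was set against DMSO (0%) and no-cell blank (100%), and IC50 was obtained by two-parameter logistic regression.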
Sequence of PIM1 transgenic cells (Ba/F3) (P11309 whole entry, stated change not applied): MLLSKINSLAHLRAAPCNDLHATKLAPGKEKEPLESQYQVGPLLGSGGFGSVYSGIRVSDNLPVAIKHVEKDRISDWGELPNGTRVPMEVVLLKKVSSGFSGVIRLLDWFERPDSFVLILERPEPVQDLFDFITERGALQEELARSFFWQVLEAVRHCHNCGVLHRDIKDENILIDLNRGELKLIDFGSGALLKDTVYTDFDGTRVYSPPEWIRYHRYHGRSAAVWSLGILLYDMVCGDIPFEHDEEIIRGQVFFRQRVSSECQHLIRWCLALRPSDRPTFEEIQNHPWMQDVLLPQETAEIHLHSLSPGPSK

T1 sequence (P11309 whole entry): as the sequence (P11309 whole entry, stated change not applied) above

In general, IC50 refers to the midpoint of a concentration-inhibition curve. Lower therefore signals higher potency. Compound `C[C@H](Nc1cc(-c2n[nH]c(=O)o2)ccc1C(F)(F)F)C1CCCNCCC1` [Example 162, 5-[3-{[(1S)-1-(azocan-5-yl)ethyl]amino}-4-(trifluoromethyl)phenyl]-1,3,4-oxadiazol-2(3H)-one hydrochloride] yielded an IC50 in test [1] of 8.7 nM. For the same compound, the GI50 in test [2] is 140 nM.
`O=c1[nH]nc(-c2ccc(C(F)(F)F)c(NC[C@H]3CCNC[C@H]3F)c2)o1` [Example 126, 5-[3-({[(3S,4R)-3-fluoropiperidin-4-yl]methyl}amino)-4-(trifluoromethyl)phenyl]-1,3,4-oxadiazol-2(3H)-one hydrochloride] gave an IC50 in test [1] of 11 nM. Moreover, the GI50 in test [2] was found to be 600 nM.
Compound `O=c1[nH]nc(-c2ccc(C(F)(F)F)c(NC[C@@H]3CCCNC3)c2)o1` [Example 54, 5-[3-({[(3R)-piperidin-3-yl]methyl}amino)-4-(trifluoromethyl)phenyl]-1,3,4-oxadiazol-2(3H)-one hydrochloride] yielded an IC50 in test [1] of 13 nM. Also, in test [2], the GI50 is 1200 nM.
For `Cc1cc(-c2n[nH]c(=O)o2)cc(N[C@@H](C)C2CCNCC2)c1Cl` [Example 84, 5-(4-chloro-3-methyl-5-{[(1S)-1-(piperidin-4-yl)ethyl]amino}phenyl)-1,3,4-oxadiazol-2(3H)-one dihydrochloride], the midpoint of inhibition in test [1], the IC50, lay at 1.1 nM. The GI50 in test [2] came out at 36 nM.
The compound `O=c1[nH]nc(-c2ccc(C(F)(F)F)c(N[C@@H](CF)C3(F)CCNCC3)c2)o1` [Example 209, 5-[3-{[(1S)-2-fluoro-1-(4-fluoropiperidin-4-yl)ethyl]amino}-4-(trifluoromethyl)phenyl]-1,3,4-oxadiazol-2(3H)-one] gave an IC50 in test [1] of 5.7 nM. Moreover, in test [2], the GI50 was found to be 100 nM.
Consider `O=c1[nH]nc(-c2cc(Br)c3cnn(CC4CCNCC4)c3c2)o1` [Example 124, 5-{4-bromo-1-[(piperidin-4-yl)methyl]-1H-indazol-6-yl}-1,3,4-oxadiazol-2(3H)-one hydrochloride], for which, in test [1], the IC50 was 26 nM. The GI50 in test [2] was determined as 4100 nM.
The matching figures for `C[C@@H]([C@H]1CC[C@H](N)CC1)N1CCOc2ccc(-c3n[nH]c(=O)o3)cc21` [Example 247, 5-(4-{(1S)-1-[(1r,4S)-4-aminocyclohexyl]ethyl}-3,4-dihydro-2H-1,4-benzoxazin-6-yl)-1,3,4-oxadiazol-2(3H)-one]: 2.8 nM and 120 nM.
The matching figures for `N[C@H]1CC[C@H](COc2cc(-c3n[nH]c(=O)o3)ccc2Br)CC1` [Example 238, 5-(3-{[(1r,4r)-4-aminocyclohexyl]methoxy}-4-bromophenyl)-1,3,4-oxadiazol-2(3H)-one]: 2.5 nM and 87 nM.
In the case of `N[C@H]1CC[C@H](CN2CCCc3ccc(-c4n[nH]c(=O)o4)cc32)CC1` [Example 244, 5-(1-{[(1r,4r)-4-aminocyclohexyl]methyl}-1,2,3,4-tetrahydroquinolin-7-yl)-1,3,4-oxadiazol-2(3H)-one], the IC50 in test [1] amounted to 11 nM. The GI50 in test [2] is 140 nM.
The matching figures for `C[C@H](Nc1cc(-c2n[nH]c(=O)o2)ccc1C(F)F)C1CCNCC1` [Example 90, 5-[4-(difluoromethyl)-3-{[(1S)-1-(piperidin-4-yl)ethyl]amino}phenyl]-1,3,4-oxadiazol-2(3H)-one]: 21 nM and 3800 nM.
The matching figures for `C[C@H](Nc1c(F)c(-c2n[nH]c(=O)o2)cc(F)c1Cl)C1CCNCC1` [Example 88, 5-(4-chloro-2,5-difluoro-3-{[(1S)-1-(piperidin-4-yl)ethyl]amino}phenyl)-1,3,4-oxadiazol-2(3H)-one hydrochloride]: 2.4 nM and 110 nM.
The matching figures for `CC(Oc1cc(-c2n[nH]c(=O)o2)ccc1C(F)(F)F)C1CCNCC1` (stereo not drawn) [Example 239, 5-{3-[1-(piperidin-4-yl)ethoxy]-4-(trifluoromethyl)phenyl}-1,3,4-oxadiazol-2(3H)-one]: 10 nM and 250 nM.
In test [1], `COc1c(Cl)cc(-c2n[nH]c(=O)o2)cc1N[C@@H](C)C1CCNCC1` [Example 104, 5-(3-chloro-4-methoxy-5-{[(1S)-1-(piperidin-4-yl)ethyl]amino}phenyl)-1,3,4-oxadiazol-2(3H)-one hydrochloride] returned an IC50 of 4 nM. Also, the GI50 in test [2] is 110 nM.
The matching figures for `N[C@@H]1CCCN(CCNc2cc(-c3n[nH]c(=O)o3)ccc2C(F)(F)F)C1` [Example 72, 5-[3-({2-[(3R)-3-aminopiperidin-1-yl]ethyl}amino)-4-(trifluoromethyl)phenyl]-1,3,4-oxadiazol-2(3H)-one dihydrochloride]: 8.4 nM and 920 nM.
The matching figures for `C[C@@H]1CN([C@@H](C)[C@H]2CC[C@H](N)CC2)c2cc(-c3n[nH]c(=O)o3)cc(F)c2O1` [Example 253, 5-[(2R)-4-{(1S)-1-[(1r,4S)-4-aminocyclohexyl]ethyl}-8-fluoro-2-methyl-3,4-dihydro-2H-1,4-benzoxazin-6-yl]-1,3,4-oxadiazol-2(3H)-one hydrochloride]: 3 nM and 81 nM.
In turn, `C[C@H](Nc1cc(-c2n[nH]c(=O)o2)cc(S(F)(F)(F)(F)F)c1)C1CCNCC1` [Example 107, 5-[3-(pentafluoro-λ^6-sulfanyl)-5-{[(1S)-1-(piperidin-4-yl)ethyl]amino}phenyl]-1,3,4-oxadiazol-2(3H)-one hydrochloride] came in with an IC50 in test [1] of 25 nM. For the same compound, the GI50 in test [2] was 6500 nM.
The matching figures for `C[C@H](Nc1c(F)c(-c2n[nH]c(=O)o2)cc(F)c1Cl)[C@H]1CC[C@H](N)CC1` [Example 169, 5-[3-({(1S)-1-[(1r,4S)-4-aminocyclohexyl]ethyl}amino)-4-chloro-2,5-difluorophenyl]-1,3,4-oxadiazol-2(3H)-one hydrochloride]: 6.5 nM and 310 nM.
The compound `N[C@H]1CC[C@H](Nc2cc(-c3n[nH]c(=O)o3)ccc2Cl)CC1` [Example 32, 5-(3-{[(1r,4r)-4-aminocyclohexyl]amino}-4-chlorophenyl)-1,3,4-oxadiazol-2(3H)-one] registered an IC50 in test [1] of 5.7 nM. In addition, the GI50 in test [2] was found to be 410 nM.
The matching figures for `C[C@@H]1CNCC[C@@H]1[C@H](C)Nc1cc(-c2n[nH]c(=O)o2)ccc1Cl` [Example 221, 5-[4-chloro-3-({(1S)-1-[(3S,4S)-3-methylpiperidin-4-yl]ethyl}amino)phenyl]-1,3,4-oxadiazol-2(3H)-one]: 7.2 nM and 46 nM.
The compound `C[C@H](Nc1cc(-c2n[nH]c(=O)o2)ccc1C(F)(F)F)[C@H]1CC[C@@H](N)C1` [Example 199, 5-[3-({(1S)-1-[(1S,3R)-3-aminocyclopentyl]ethyl}amino)-4-(trifluoromethyl)phenyl]-1,3,4-oxadiazol-2(3H)-one hydrochloride] gave an IC50 in test [1] of 3.9 nM. The GI50 in test [2] is 110 nM.
The matching figures for `C[C@H](Nc1cc(-c2n[nH]c(=O)o2)ccc1C(F)(F)F)[C@@H]1CC[C@H](N)C1` [Example 200, 5-[3-({(1S)-1-[(1R,3S)-3-aminocyclopentyl]ethyl}amino)-4-(trifluoromethyl)phenyl]-1,3,4-oxadiazol-2(3H)-one hydrochloride]: 8.5 nM and 100 nM.
The matching figures for `O=c1[nH]nc(-c2cc(F)c(C(F)(F)F)c(NCC3(F)CCNCC3)c2)o1` [Example 129, 5-[3-fluoro-5-{[(4-fluoropiperidin-4-yl)methyl]amino}-4-(trifluoromethyl)phenyl]-1,3,4-oxadiazol-2(3H)-one hydrochloride]: 8.2 nM and 360 nM.
The matching figures for `CC(Nc1cc(-c2n[nH]c(=O)o2)ccc1C(F)(F)F)C1(C)CCNCC1` (stereo not drawn) [Example 115, 5-[3-{[1-(4-methylpiperidin-4-yl)ethyl]amino}-4-(trifluoromethyl)phenyl]-1,3,4-oxadiazol-2(3H)-one]: 12 nM and 100 nM.
For `N[C@H]1CCCN(CCNc2cc(-c3n[nH]c(=O)o3)ccc2C(F)(F)F)C1` [Example 73, 5-[3-({2-[(3S)-3-aminopiperidin-1-yl]ethyl}amino)-4-(trifluoromethyl)phenyl]-1,3,4-oxadiazol-2(3H)-one dihydrochloride], it took 21 nM to reach half-maximal inhibition in test [1] (IC50). The GI50 in test [2] worked out at 570 nM.
In test [1], `CN[C@H]1C[C@@H]([C@H](C)Nc2cc(-c3n[nH]c(=O)o3)cc(F)c2OC(F)(F)F)C1` [Example 208, 5-[3-fluoro-5-({(1S)-1-[(1s,3R)-3-(methylamino)cyclobutyl]ethyl}amino)-4-(trifluoromethoxy)phenyl]-1,3,4-oxadiazol-2(3H)-one] showed an IC50 of 8.5 nM. Further, the GI50 in test [2] came to 130 nM.
The matching figures for `C[C@H](Nc1cc(-c2n[nH]c(=O)o2)ccc1C(F)(F)F)[C@H]1CCC[C@@H](N)C1` [Example 194, 5-[3-({(1S)-1-[(1S,3R)-3-aminocyclohexyl]ethyl}amino)-4-(trifluoromethyl)phenyl]-1,3,4-oxadiazol-2(3H)-one hydrochloride]: 12 nM and 280 nM.
The matching figures for `C[C@H](Nc1cc(-c2n[nH]c(=O)o2)c(F)cc1Cl)C1CCNCC1` [Example 95, 5-(4-chloro-2-fluoro-5-{[(1S)-1-(piperidin-4-yl)ethyl]amino}phenyl)-1,3,4-oxadiazol-2(3H)-one hydrochloride]: 11 nM and 590 nM.
